Publication PMC2442655, “Structure-Activity Relationship and Substrate-Dependent Phenomena in Effects of Ginsenosides on Activities of Drug-Metabolizing P450 Enzymes” (PLoS ONE, 2008)
Like-named read-outs stand apart in the source and are kept apart here.

Assays:
[1] = molecular target: T1, CYP2C9 (Homo sapiens, UniProt P11712); test: Vivid CYP2C9 red fluorescent assay; type: in vitro ADME
T1 construct: purchased Invitrogen Corporation
Method: In brief, the assays were carried out in Costar® black-wall 96-well plates with ultra thin clear bottoms (Corning Inc, Corning, NY, USA) in a kinetic assay mode. […] For each well, 40 µL of solution of test compounds or vehicle was incubated with 50 µL pre-mixture (mixture of BACULOSOMES® reagent, regeneration system and reaction buffer) at 37°C for 20 min. […] The final methanol volume in the reaction was less than or equal to 1%.

[2] = molecular target: CYP2C19 (Homo sapiens, UniProt P33261); test: Vivid CYP2C19 blue fluorescent assay
Method: (§1) The inhibition of the catalytic activities of cDNA-expressed human P450 enzymes by ginsenosides was determined using Vivid® P450 screening kits (CYP1A2 blue, CYP2C9 red, CYP2C19 blue, CYP2D6 blue, CYP3A4 green and red) according to the manufacturer's instructions (Invitrogen Corporation; Carlsbad, CA, USA).
(§2) In brief, the assays were carried out in Costar® black-wall 96-well plates with ultra thin clear bottoms (Corning Inc, Corning, NY, USA) in a kinetic assay mode. Stock solutions (10 mM) of ginsenosides in methanol were prepared and diluted to various concentrations (2.5× 100, 50, 10, 5, 1 µM). For each well, 40 µL of solution of test compounds or vehicle was incubated with 50 µL pre-mixture (mixture of BACULOSOMES® reagent, regeneration system and reaction buffer) at 37°C for 20 min. The reaction was initiated by adding 10 µL of a mixture of substrate and NADP^+ per well with a respective concentration of Vivid® substrate (Table 1). The plate was read immediately for fluorescence changes every 0.5 min at 37°C for 30 min using a FlexStation II384 fluorometric plate reader (Molecular Devices, Sunnyvale, CA, USA) with respective excitation and emission wavelengths for each P450 enzyme (Table 1). The final methanol volume in the reaction was less than or equal to 1%.

[3] = molecular target: T2, CYP3A4 (Homo sapiens, UniProt P08684); test: Carbamazepine 10,11-epoxidation in human liver microsomes; settings: for Effect on in vitro CBZ metabolism: 1-50 µM
Method: (§3) The effects of the ginsenosides and sapogenins on the in vitro metabolism of CBZ were evaluated using HLM. […] Vehicle control samples were treated with methanol at a final concentration of 0.5% instead of test compounds. The reaction was initiated by adding 60 µL pre-warmed NADPH-regenerating system (50 µL BD solution A and 10 µL BD solution B). After incubation at 37°C for 30 min, the reaction system was quenched by adding 0.4 ml ice-cold acetonitrile, which was mixed well and centrifuged at 4°C (10,000 g, 10 min). The supernatant (0.4 ml) was collected, mixed with 0.8 ml acetonitrile and then centrifuged at 4°C (10,000 g, 10 min). The supernatant (30 µL) was diluted with 970 µL ddH2O and 50 µL of the mixture was injected onto the high performance liquid chromatography/tandem mass spectrometry (HPLC-MS-MS) system for analysis. […] Microsomal studies using NF as the substrate were conducted as described above for CBZ with several modifications. The NF concentration was 1 µM. The supernatant (0.4 ml) of the reaction system after quenching and centrifugation was also combined with 0.8 ml acetonitrile and centrifuged, and 10 µL of the resultant supernatant was directly injected onto the HPLC-MS-MS system for analysis.
(§4) The HPLC was performed using an Agilent 1200 system (Palo Alto, CA, USA) equipped with a binary pump and an auto-sampler. […] The elution lasted for 8 min.
(§5) The MS analysis was performed on a 4000Q Trap™ triple quadrupole mass spectrometer (Applied Biosystems/MDS Sciex Instruments, Concord, Ontario, Canada) equipped with a Turbo V ion source (TurboIonSpray™ probe was used), a Dell™ computer, and Analyst™ software. Electrospray ionization in the positive mode was employed to analyze CBZ-E and ONF, respectively. The compound parameters for CBZ-E and ONF were: declustering potential, 65 and 95 units, and collision energy, 39 and 40 units, respectively. The ion source parameters were as follows: curtain gas, 15 units; collision gas, medium; ion spray voltage, 4000 and 5000 V, respectively; temperature, 650 and 350°C, respectively; ion source gas 1, 60.0 and 65.0 units, respectively; ion source gas 2, 45.0 units.

[4] = molecular target: T2, CYP3A4; test: Vivid CYP3A4 green fluorescent assay
Method: as §1, §2

[5] = molecular target: T2, CYP3A4; test: Vivid CYP3A4 red fluorescent assay; settings: for Effect on CYP3A4 catalytic activity, Vivid red assay: red substrate
Method: as §1, §2

[6] = molecular target: T2, CYP3A4; test: Nifedipine oxidation in human liver microsomes; settings: for Effect on NF metabolism: 1-50 µM; for Effect on NF in vitro metabolism: low concentrations (1∼10 µM)
Method: as §3, §4, §5

[7] = molecular target: CYP2D6 (Homo sapiens, UniProt P10635); test: Vivid CYP2D6 blue fluorescent assay; settings: for inhibition at 30 min, 50 µM: human
Method: as §1, §2

[8] = molecular target: T3, CYP1A2 (Homo sapiens, UniProt P05177); test: Vivid CYP1A2 blue fluorescent assay; settings: for IC50: IC50 CYP1A2 blue, cDNA-expressed enzyme, Vivid blue substrate 3 µM; for inhibition at 30 min, 50 µM: human
T3 sequence (P05177 1-516): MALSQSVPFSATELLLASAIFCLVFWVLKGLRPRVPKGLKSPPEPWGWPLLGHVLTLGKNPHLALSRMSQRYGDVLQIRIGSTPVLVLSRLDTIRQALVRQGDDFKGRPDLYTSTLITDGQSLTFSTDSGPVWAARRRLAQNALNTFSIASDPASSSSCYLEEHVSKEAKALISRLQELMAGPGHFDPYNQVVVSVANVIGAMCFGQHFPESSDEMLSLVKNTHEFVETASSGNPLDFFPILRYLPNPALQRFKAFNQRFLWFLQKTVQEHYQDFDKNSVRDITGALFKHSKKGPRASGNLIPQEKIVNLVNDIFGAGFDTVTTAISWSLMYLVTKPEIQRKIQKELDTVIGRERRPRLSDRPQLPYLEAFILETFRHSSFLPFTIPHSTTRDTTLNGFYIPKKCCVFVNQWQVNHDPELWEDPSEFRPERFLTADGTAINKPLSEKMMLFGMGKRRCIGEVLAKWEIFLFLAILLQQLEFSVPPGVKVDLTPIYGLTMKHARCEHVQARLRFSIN
Method: as §1, §2

[9] = tested on: CYP3A4; parameters: method as in PMID 15133536; settings: read-out: IC50 CYP3A4-mediated testosterone 6β-hydroxylation; cited from earlier work
[10] = cDNA-expressed enzyme, Vivid red substrate 2 µM, maximum concentration 50 µM, read-out: IC50 CYP2C9 red
[11] = recombinant (cDNA-expressed) CYP2D6 BACULOSOMES, probe Vivid blue substrate 10 µM
[12] = recombinant (cDNA-expressed) CYP1A2 BACULOSOMES, probe Vivid blue substrate 3 µM

Chain of CYP2C19 (P33261 whole entry): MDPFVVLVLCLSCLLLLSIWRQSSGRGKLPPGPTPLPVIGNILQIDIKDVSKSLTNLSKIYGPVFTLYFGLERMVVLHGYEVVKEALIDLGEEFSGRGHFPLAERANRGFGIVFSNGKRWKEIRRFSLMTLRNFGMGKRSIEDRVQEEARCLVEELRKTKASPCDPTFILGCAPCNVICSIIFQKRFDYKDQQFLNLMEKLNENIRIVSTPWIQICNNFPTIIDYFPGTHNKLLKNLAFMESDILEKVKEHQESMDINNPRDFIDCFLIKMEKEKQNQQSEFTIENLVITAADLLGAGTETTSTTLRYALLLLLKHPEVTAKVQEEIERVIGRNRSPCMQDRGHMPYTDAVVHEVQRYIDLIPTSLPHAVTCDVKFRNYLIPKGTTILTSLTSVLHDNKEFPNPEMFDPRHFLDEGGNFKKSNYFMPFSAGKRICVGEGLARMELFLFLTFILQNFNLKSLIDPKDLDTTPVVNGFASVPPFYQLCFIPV
Chain of CYP2D6 (P10635 whole entry): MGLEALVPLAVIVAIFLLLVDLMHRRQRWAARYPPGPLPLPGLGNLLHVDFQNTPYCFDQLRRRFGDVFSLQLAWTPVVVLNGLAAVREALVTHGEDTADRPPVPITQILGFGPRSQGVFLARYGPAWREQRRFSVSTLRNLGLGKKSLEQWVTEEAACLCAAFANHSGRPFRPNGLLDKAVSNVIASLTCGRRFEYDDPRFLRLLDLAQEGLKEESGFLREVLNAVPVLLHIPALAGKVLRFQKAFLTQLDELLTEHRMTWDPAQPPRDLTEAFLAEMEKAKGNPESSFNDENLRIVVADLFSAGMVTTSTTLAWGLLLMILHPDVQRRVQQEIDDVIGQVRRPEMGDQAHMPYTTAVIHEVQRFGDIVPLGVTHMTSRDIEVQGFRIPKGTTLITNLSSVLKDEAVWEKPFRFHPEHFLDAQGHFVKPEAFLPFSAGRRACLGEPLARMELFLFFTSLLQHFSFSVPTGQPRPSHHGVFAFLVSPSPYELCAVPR
T1 sequence (P11712 whole entry): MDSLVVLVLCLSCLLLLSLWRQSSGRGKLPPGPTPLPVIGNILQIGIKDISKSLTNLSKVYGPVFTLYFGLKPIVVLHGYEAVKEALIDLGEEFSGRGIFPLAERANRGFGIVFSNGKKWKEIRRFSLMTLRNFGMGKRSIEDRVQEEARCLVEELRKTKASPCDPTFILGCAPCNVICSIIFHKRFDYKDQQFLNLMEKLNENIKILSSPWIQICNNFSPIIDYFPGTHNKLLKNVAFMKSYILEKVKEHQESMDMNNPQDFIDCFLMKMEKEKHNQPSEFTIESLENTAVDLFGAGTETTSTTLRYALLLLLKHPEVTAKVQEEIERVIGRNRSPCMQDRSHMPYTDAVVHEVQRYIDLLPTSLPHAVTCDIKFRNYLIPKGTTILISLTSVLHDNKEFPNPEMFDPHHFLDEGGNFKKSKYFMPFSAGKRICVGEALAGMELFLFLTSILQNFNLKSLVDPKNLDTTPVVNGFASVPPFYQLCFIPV
T2 sequence (P08684 whole entry): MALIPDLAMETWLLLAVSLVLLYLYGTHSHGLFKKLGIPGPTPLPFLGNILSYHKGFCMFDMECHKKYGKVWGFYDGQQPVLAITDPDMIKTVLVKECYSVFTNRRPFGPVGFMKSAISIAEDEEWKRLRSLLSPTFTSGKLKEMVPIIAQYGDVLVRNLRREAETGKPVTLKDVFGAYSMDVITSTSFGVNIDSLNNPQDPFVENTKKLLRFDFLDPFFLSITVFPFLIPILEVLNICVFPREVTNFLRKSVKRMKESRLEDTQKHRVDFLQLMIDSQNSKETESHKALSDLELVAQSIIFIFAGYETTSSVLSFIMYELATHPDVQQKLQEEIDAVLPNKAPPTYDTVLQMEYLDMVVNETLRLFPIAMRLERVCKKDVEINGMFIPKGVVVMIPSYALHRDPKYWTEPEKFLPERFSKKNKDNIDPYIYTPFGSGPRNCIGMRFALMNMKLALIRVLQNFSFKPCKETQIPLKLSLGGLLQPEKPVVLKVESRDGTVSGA

SMILES | IC50 [1, 10] | IC50 [2] | Effect on in vitro CBZ metabolism [3] | IC50 [4] | Effect on CYP3A4 catalytic activity, Vivid red assay [5] | Effect on NF metabolism [6] | IC50 [7] | inhibition at 30 min, 50 µM [7, 11] | IC50 [8] | inhibition at 30 min, 50 µM [8, 12] | IC50 [5] | Effect on NF in vitro metabolism [6] | also measured
CC(C)(O)CCC[C@@](C)(O)[C@H]1CC[C@]2(C)[C@@H]1[C@H](O)C[C@@H]1[C@@]3(C)CC[C@H](O)C(C)(C)[C@@H]3CC[C@]12C [20(R)-25-OH-PPD, 20(R)-dammarane-3β, 12β, 20, 25-tetrol] | 7.6 µM | 69.1 µM | substantially activated | 25.6 µM | activated the catalytic activity of CYP3A4 | negligible | > 50 µM | 31.8% | > 100 µM | 22.8% | – | – | Activation of CYP3A4, Vivid red assay (fold) ([5]; 10 µM): about two-fold
COC(C)(C)CCC[C@](C)(O)[C@H]1CC[C@]2(C)[C@@H]1[C@H](O)C[C@@H]1[C@@]3(C)CC[C@H](O)C(C)(C)[C@@H]3CC[C@]12C [25-OCH3-PPD, 20(S)-25-methoxyl-dammarane-3β, 12β, 20-triol] | 7.5 µM | 26.5 µM | substantially activated | 17.7 µM | – | negligible | > 50 µM | 12.6% | > 100 µM | 4.8% | > 100 µM | – | Activation of CYP3A4, Vivid red assay ([5]; 10 µM): about 20%; Effect on CYP3A4, Vivid red assay ([5]; high concentrations): weakly inhibited; inhibition at 30 min, 50 µM ([5]; human, recombinant (cDNA-expressed) CYP3A4 BACULOSOMES, probe Vivid red substrate 3 µM): 25.4%
CC(C)=CCC[C@](C)(O)[C@H]1CC[C@]2(C)[C@@H]1[C@H](O)C[C@@H]1[C@@]3(C)CC[C@H](O)C(C)(C)[C@@H]3CC[C@]12C [PPD, protopanaxadiol] | 8 µM | 52.6 µM | substantially activated | 9.3 µM | inhibited CYP3A4 in a dose-dependent manner | – | > 50 µM | 25.9% | 86.6 µM | – | 43.1 µM | weak activation effect | Activation of CBZ metabolism (fold) ([3]; 10 µM): about five-fold
CC(C)=CCC[C@](C)(O[C@@H]1O[C@H](CO)[C@@H](O)[C@H](O)[C@H]1O)[C@H]1CC[C@]2(C)[C@@H]1[C@H](O)C[C@@H]1[C@@]3(C)CC[C@H](O[C@@H]4O[C@H](CO)[C@@H](O)[C@H](O)[C@H]4O[C@@H]4O[C@H](CO)[C@@H](O)[C@H](O)[C@H]4O)C(C)(C)[C@@H]3CC[C@]12C [Rd] | > 50 µM | > 100 µM | – | > 100 µM | – | – | > 50 µM | 18.1% | > 100 µM | 38.3% | 72.7 µM | – | inhibition at 30 min, 50 µM ([1]; human, recombinant (cDNA-expressed) CYP2C9 BACULOSOMES, probe Vivid red substrate 2 µM): 34.8%; inhibition at 30 min, 50 µM ([2]; human, recombinant (cDNA-expressed) CYP2C19 BACULOSOMES, probe Vivid blue substrate 10 µM): 27.7%; inhibition at 30 min, 50 µM ([4]; human, recombinant (cDNA-expressed) CYP3A4 BACULOSOMES, probe Vivid green substrate 2 µM): 12.6%; IC50 [9]: 62 µM
CC(C)=CCC[C@](C)(O)[C@H]1CC[C@]2(C)[C@@H]1[C@H](O)C[C@@H]1[C@@]3(C)CC[C@H](O[C@@H]4O[C@H](CO)[C@@H](O)[C@H](O)[C@H]4O)C(C)(C)[C@@H]3CC[C@]12C [Rh2] | – | 49.9 µM | did not significantly alter | 47 µM | inhibited CYP3A4 in a dose-dependent manner | – | > 50 µM | – | > 100 µM | – | 9.8 µM | weak activation effect | IC50 [1]: 30.9 µM; Effect on CYP3A4-catalyzed NF oxidation ([6]; high concentration (50 µM)): weakly inhibited; inhibition at 30 min, 50 µM [7]: 20.3%; inhibition at 30 min, 50 µM [8]: 39.4%
O=c1cc(-c2ccccc2)oc2c1ccc1ccccc12 [α-naphthoflavone, reference compound] | – | – | – | – | – | – | – | – | – | – | – | – | Increase of CBZ metabolism vs vehicle control ([3]; 10 µM): 772%; Effect on in vitro NF metabolism ([6]; 10 µM): did not significantly alter
